The target of the experiment is T1, human RXFP1 (Homo sapiens, UniProt Q9HBX9).
T1 construct: expressed in transfected cells
T1 sequence (Q9HBX9 1-757): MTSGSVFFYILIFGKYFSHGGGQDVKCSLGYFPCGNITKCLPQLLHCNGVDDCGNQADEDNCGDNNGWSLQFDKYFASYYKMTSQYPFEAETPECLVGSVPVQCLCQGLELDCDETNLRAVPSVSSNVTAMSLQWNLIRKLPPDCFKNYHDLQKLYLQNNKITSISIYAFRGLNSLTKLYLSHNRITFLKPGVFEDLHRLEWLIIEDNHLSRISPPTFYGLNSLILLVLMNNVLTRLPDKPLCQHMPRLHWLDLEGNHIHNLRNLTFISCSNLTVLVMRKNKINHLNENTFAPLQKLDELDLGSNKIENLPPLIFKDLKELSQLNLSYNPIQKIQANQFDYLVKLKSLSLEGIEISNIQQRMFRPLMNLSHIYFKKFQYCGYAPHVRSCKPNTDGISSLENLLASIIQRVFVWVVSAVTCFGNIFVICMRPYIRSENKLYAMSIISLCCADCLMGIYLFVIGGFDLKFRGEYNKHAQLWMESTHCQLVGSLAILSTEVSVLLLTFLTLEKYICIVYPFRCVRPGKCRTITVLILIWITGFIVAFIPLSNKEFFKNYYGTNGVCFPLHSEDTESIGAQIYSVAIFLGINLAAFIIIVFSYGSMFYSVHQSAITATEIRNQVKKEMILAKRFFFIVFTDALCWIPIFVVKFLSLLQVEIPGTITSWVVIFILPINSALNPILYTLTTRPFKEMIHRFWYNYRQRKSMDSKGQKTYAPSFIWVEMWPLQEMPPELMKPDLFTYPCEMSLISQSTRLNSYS
Kind of experiment: RXFP1 cyclic adenosine monophosphate (cAMP) assay, hRXFP1 HEK293. Format: cell-based. The note with it: HEK293 cells stably expressing human RXFP1; 30 min at room temperature; HTRF cAMP. As to the method: RXFP1 Cyclic Adenosine Monophosphate (cAMP) Assays. Human embryonic kidney cells 293 (HEK293) cells and HEK293 cells stably expressing human RXFP1, were cultured in MEM medium supplemented with 10% qualified FBS, and 300 μg/ml hygromycin (Life Technologies). Cells were dissociated and suspended in assay buffer. The assay buffer was HBSS buffer (with calcium and magnesium) containing 20 mM HEPES, 0.05% BSA, and 0.5 mM IBMX. Cells (3000 cells per well, except 1500 cell per well for HEK293 cells stably expressing human RXFP1) were added to 384-well Proxiplates (Perkin-Elmer). Cells were immediately treated with test compounds in DMSO (2% final) at final concentrations in the range of 0.010 nM to 50 μM. Cells were incubated for 30 min at room temperature. The level of intracellular cAMP was determined using the HTRF HiRange cAMP assay reagent kit (Cisbio) according to manufacturer's instructions. Solutions of cryptate conjugated anti-cAMP and d2 fluorophore-labelled cAMP were made in a supplied lysis buffer separately. Upon completion of the reaction, the cells were lysed with equal volume of the d2-cAMP solution and anti-cAMP solution. After a 1 h room temperature incubation, time-resolved fluorescence intensity was measured using the Envision (Perkin-Elmer) at 400 nm excitation and dual emission at 590 nm and 665 nm. A calibration curve was constructed with an external cAMP standard at concentrations ranging from 2.7 μM to 0.1 μM by plotting the fluorescent intensity ratio from 665 nm emission to the intensity from the 590 nm emission against cAMP concentrations. The potency and activity of a compound to […] cAMP production was then determined by fitting to a 4-parametric logistic equation from a plot of cAMP level versus compound concentrations.
The examples disclosed below were tested in the human RXFP1 (hRXFP) HEK293 cAMP assay described above and found to have agonist activity. Tables 1-3, lists EC50 values in the hRXFP1 HEK293 cAMP assay measured for the examples.
Table A lists EC50 values in the hRXFP1 HEK293 cAMP assay measured for the examples.
Compound `COc1ccc(C2=NOC3CC(O)CC23)cc1C(=O)Nc1cc2nc(C)sc2cc1C(=O)Nc1ccc(F)c(C(F)(F)F)c1` (single isomer, unassigned) [Example 27, N-(4-fluoro-3-(trifluorometh-yl)phenyl)-5-(5-(5-hydroxy-3a,5,6,6a-tetra-hydro-4H-cyclopenta[d]isoxazol-3-yl)-2-methoxy-benzamido)-2-methylbenzo [d]thiazole-6-carboxamide] registered an EC50 of 2200 nM.

Take `COc1ccc(C2=NOC3CC(CO)CC23)cc1C(=O)Nc1cc2c(cc1C(=O)Nc1ccc(F)c(C(F)(F)F)c1)OC(F)(F)O2` (centres unmarked) [Example 98]: the EC50 turned out to be 1.3 nM. This EC50 is about 1700-fold lower than that of the compound before.

For the compound `COc1ccc(C2=NOC3CC(COP(=O)(O)O)CC23)cc1C(=O)Nc1cc2nc(C)sc2cc1C(=O)Nc1ccc(F)c(C(F)(F)F)c1` (centres unmarked) [Example 9, (3-(3-((6-((4-fluoro-3-(trifluorometh-yl)phenyl)car-bamoyl)-2-methylbenzo [d]thiazol-5-yl)carbamo-yl)-4-meth-oxyphenyl)-3a,5,6,6a-tetra-hydro-4H-cyclopenta[d]isoxazol-5-yl)methyldi-hydrogen phosphate], the EC50 was 110 nM. This EC50 is about 85-fold higher than that of the compound before.

The compound `COc1ccc(-c2cnc3n2CCNC3)cc1C(=O)Nc1cc2c(cc1C(=O)Nc1ccc(F)c(C(F)(F)F)c1)OC(F)(F)O2` [Example 62, 2,2-difluoro-N-(4-fluoro-3-(trifluoromethyl)phenyl)-6-(2-methoxy-5-(5,6,7,8-tetrahydroimidazo[1,2-a]pyrazin-3-yl)benzamido)benzo[d] [1,3]dioxole-5-carboxamide] came in with an EC50 of 646 nM.

Consider `COc1ccc(C2=NOC3(CCN(C(=O)CO)CC3)C2)cc1C(=O)Nc1cc2c(cc1C(=O)Nc1ccc(F)c(C(F)(F)F)c1)OC(F)(F)O2` [Example 68, 2,2-difluoro-N-(4-fluoro-3-(trifluoromethyl)phenyl)-6-(5-(8-(2-hydroxyacetyl)-1-oxa-2,8-diazaspiro[4.5]dec-2-en-3-yl)-2-methoxybenzamido) benzo[d][1,3]dioxole-5-carboxamide], for which a half-maximal response (EC50) required 173 nM.

Consider `COc1ccc(S(=O)(=O)N2CCOC[C@@H]2CO)cc1C(=O)Nc1cc2nc(C)sc2cc1C(=O)Nc1ccc(F)c(C(F)(F)F)c1` [Example 14, (S)-N-(4-fluoro-3-(tri-fluoromethyl)-phenyl)-5-(5-((3-(hydroxy-methyl)morph-olino)sulfon-yl)-2-methoxy-benzamido)-2-methylbenzo [d]thiazole-6-carboxamide], for which the EC50 came out at 1400 nM.

Turning to `COc1ccc(-c2cc(C(NC(=O)C3CCOCC3)C(=O)O)ccc2F)cc1C(=O)Nc1cc2sc(C)nc2cc1C(=O)Nc1ccc(F)c(C(F)(F)F)c1` (single isomer, unassigned) [Example 30, 2-(6-fluoro-3′-((5-((4-fluoro-3-(trifluoromethyl)phenyl)carbamoyl)-2-methylbenzo[d]thiazol-6-yl)carbamoyl)-4′-methoxy-[1,1′-biphenyl]-3-yl)-2-(tetrahydro-2H-pyran-4-carboxamido)acetic acid], it took 15 nM to reach a half-maximal effect (EC50).

Consider `COc1ccc(C2=NOC3COCC23)cc1C(=O)Nc1cc2nc(C)sc2cc1C(=O)Nc1ccc(F)c(C(F)(F)F)c1` (centres unmarked) [Example 3, N-(4-fluoro-3-(trifluorometh-yl)phenyl)-5-(2-methoxy-5-(3a,4,6,6a-tetrahydrofuro [3,4-d]isox-azol-3-yl)-benzamido)-2-methylbenzo [d]thiazole-6-carboxamide], for which it took 8.6 nM to reach a half-maximal effect (EC50).

Turning to `COc1ccc(C2CCCN(S(C)(=O)=O)C2)cc1C(=O)Nc1cc2c(cc1C(=O)Nc1ccc(F)c(C(F)(F)F)c1)OC(F)(F)O2` (single isomer, unassigned) [Example 49, 2,2-difluoro-N-(4-fluoro-3-(trifluoromethyl)phenyl)-6-(2-methoxy-5-(1-(methylsulfonyl)piperidin-3-yl)benzamido)benzo[d][1,3]dioxole-5-carboxamide], the EC50 came to 154 nM.

In turn, `COc1ccc(C2=NOC3CC(NC(=O)CO)CC23)cc1C(=O)Nc1cc2c(cc1C(=O)Nc1ccc(F)c(C(F)(F)F)c1)OC(F)(F)O2` (centres unmarked) [Example 51, 2,2-difluoro-N-(4-fluoro-3-(trifluoromethyl)phenyl)-6-(5-(5-(2-hydroxyacetamido)-3a,5,6,6a-tetrahydro-4H-cyclopenta[d]isoxazol-3-yl)-2-methoxybenzamido)benzo[d][1,3]dioxole-5-carboxamide] had an EC50 of 21 nM.

The compound `COc1ccc(-c2nc3c(s2)CN(CC(N)=O)CC3)cc1C(=O)Nc1cc2c(cc1C(=O)Nc1ccc(F)c(C(F)(F)F)c1)OC(F)(F)O2` [Example 53, 6-(5-(5-(2-amino-2-oxoethyl)-4,5,6,7-tetrahydrothiazolo[5,4-c]pyridin-2-yl)-2-methoxybenzamido)-2,2-difluoro-N-(4-fluoro-3-(trifluoromethyl)phenyl)benzo[d][1,3]dioxole-5-carboxamide] gave a concentration giving a half-maximal response (EC50) of 33 nM.

Turning to `COc1ccc(C2=NOC3CS(=O)(=O)CC23)cc1C(=O)Nc1cc2nc(C)sc2cc1C(=O)Nc1ccc(F)c(C(F)(F)F)c1` (centres unmarked) [Example 6, 5-(5-(5,5-diox-ido-3a,4,6,6a-tetrahydro-thieno[3,4-d]isoxazol-3-yl)-2-methoxy-benzamido)-N-(4-fluoro-3-(trifluorometh-yl)phenyl)-2-methylbenzo [d]thiazole-6-carboxamide], the EC50 worked out at 28 nM. This EC50 and that of the compound before are within 1.5-fold of each other.

With `COc1ccc(C2=NOC3CC(O)CC23)cc1C(=O)Nc1cc2nc(C)sc2cc1C(=O)Nc1ccc(F)c(C(F)(F)F)c1` (single isomer, unassigned) [Example 24, N-(4-fluoro-3-(trifluoro-methyl)phen-yl)-5-(5-(5-hydroxy-3a,5,6,6a-tetrahydro-4H-cyclopenta [d]isoxazol-3-yl)-2-methoxy-benzamido)-2-methylbenzo [d]thiazole-6-carboxamide], the EC50 was 750 nM.

For `COc1ccc(C2=NOC3CC(O)CC23)cc1C(=O)Nc1cc2nc(C)sc2cc1C(=O)Nc1ccc(F)c(C(F)(F)F)c1` (single isomer, unassigned) [Example 23, N-(4-fluoro-3-(trifluorometh-yl)phenyl)-5-(5-(5-hydroxy-3a,5,6,6a-tetrahydro-4H-cyclopenta [d]isoxazol-3-yl)-2-methoxy-benzamido)-2-methylbenzo [d]thiazole-6-carboxamide], a half-maximal response (EC50) required 750 nM.

On to `COc1ccc(C2=NOC3CS(=O)(=O)CC23)cc1C(=O)Nc1cc2c(cc1C(=O)Nc1ccc(F)c(C(F)(F)F)c1)OC(F)(F)O2` (single isomer, unassigned) [Example 61, 6-(5-(5,5-dioxido-3a,4,6,6a-tetrahydrothieno[3,4-d]isoxazol-3-yl)-2-methoxybenzamido)-2,2-difluoro-N-(4-fluoro-3-(trifluoromethyl)phenyl) benzo[d][1,3]dioxole-5-carboxamide], for which the EC50 was found to be 17 nM.

`COc1ccc(-c2cc(S(=O)(=O)NC(C)(C)C)ccc2F)cc1C(=O)Nc1cc2c(cc1C(=O)Nc1ccc(F)c(C(F)(F)F)c1)OC(F)(F)O2` [Example 64, 6-(5′-(N-(tert-butyl)sulfamoyl)-2′-fluoro-4-methoxy-{1,1′-biphenyl]-3-carboxamido)-2,2-difluoro-N-(4-fluoro-3-(trifluoromethyl)phenyl) benzo[d][1,3]dioxole-5-carboxamide] had an EC50 of 37 nM.

With `COc1ccc(C(=O)N2CCCC(CO)C2)cc1C(=O)Nc1cc2c(cc1C(=O)Nc1ccc(F)c(C(F)(F)F)c1)OC(F)(F)O2` (centres unmarked) [Example 37, 2,2-difluoro-N-(4-fluoro-3-(trifluoromethyl)phenyl)-6-(5-(3-(hydroxymethyl)piperidine-1-carbonyl)-2-methoxybenzamido) benzo[d][1,3]dioxole-5-carboxamide], the response was half-maximal at 56 nM (EC50).

The values above are taken from patent publication US20250066344A1 (BRISTOL-MYERS SQUIBB COMPANY, priority 2021, published 2025).
